Counter-ions that a name gives are not always drawn.
System: cerebrocortical cat brain tissue slices
Test: In vitro Cerebrocortical Cat Brain Tissue Slice Assay (inhibition of HCO3^- -stimulated swelling)
Conditions: 60 minutes, 37° C., 10 mM HCO3^-, 27 mM K^+
Protocol: See, e.g., Bourke et al., Neurochem. Res., 8, 5 (1983), and Cragoe et al., J. Med. Chem., 25, 567 (1982).
Adult cats of 2-3 kg body weight were employed in tissue slice studies. Prior to sacrifice, the animals were anesthetized with ketamine hydrochloride, 10 mg/kg intramuscularly. Eight (three control, five experimental) pial surface cerebrocortical tissue slices (0.5 mm thick; approximately 150 mg initial fresh weight) were cut successively with a calibrated Stadie-Riggs fresh tissue microtome without moistening and weighed successively on a torsion balance. During the slice preparation all operations except weighing were confined to a humid chamber. Each slice was rapidly placed in an individual Warburg flask containing 2 ml of incubation medium at room temperature. The basic composition of the incubation media was as follows: glucose, 10 mM; CaCl2, 1.3 mM; MgSO4, 1.2 mM; KHSO4, 1.2 mM; HEPES (N-2-hydroxyethylpiperazine-N'-2-ethanesulfonic acid, titrated with NaOH to pH 7.4), 20 mM. Except when adding HCO3^-, the osmolarity of the media was maintained isosmotic (approximately 285 mOsm/L) by reciprocal changes of Na^+ or K^+ to achieve a concentration of K^+ of 27 mM. The basic medium was saturated with oxygen by bubbling pure oxygen through the solution for 30 minutes before use. […]
Following the 60-minute incubation period, tissue slices were separated from incubation medium by filtration, reweighed, and homogenized in 1N HClO4 (10% w/v) for electrolyte analysis. […] Control slice swelling is expressed as microliters per gram initial preswelling fresh weight. The effectiveness of an inhibitor at a given concentration was measured by the amount of HCO3^- -stimulated swelling that occurred in its presence, computed as a percent of the maximum possible and is reported as an IC50. […] Tissue and media Na^+ and K^+ levels were determined by emission flame photometry with Li^+ internal standard; Cl^- levels were determined by amperometric titration. Tissue viability during incubation is monitored by manometry.

IC50 (hydrate)	IC50 (Felis catus, 1 h)	Structure (SMILES)
100 nM		CC1(C2CCCC2)Cc2cc(OCC(=N)N)c(Cl)c(Cl)c2C1=O (single isomer, unassigned; (+)) [Example 6, (+)[(2-Cyclopentyl-6,7-dichloro-2,3-dihydro-2-methyl-1-oxo-1H-inden-5-yl)oxy]ethanimidamide hydrochloride 1/4 hydrate]
5 nM		CC1(C2CCCC2)Cc2cc(OCC(=N)N)c(Cl)c(Cl)c2C1=O (single isomer, unassigned; (-)) [Example 7, (-)[(2-Cyclopentyl-6,7-dichloro-2,3-dihydro-2-methyl-1-oxo-1H-inden-5-yl)oxy]ethanimidamide hydrochloride 1/4 hydrate]
	10 nM	CC1(C2CCCC2)Cc2cc(OCC(=N)N)c(Cl)c(Cl)c2C1=O (stereo not drawn) [Example 2, [(2-Cyclopentyl-6,7-dichloro-2,3-dihydro-2-methyl-1-oxo-1H-inden-5-yl)oxy]ethanimidamide hydrochloride hemihydrate]
